Reference: PubChem BioAssay (NCI)
“And” between values parts separate entries of the source, which are not always exact repeats. Equal entries are not always repeated.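 Interpolation was linear, between the two tested concentrations surrounding the appropriate level; five concentrations were tested over 48 hours in 96-well plates. Abbreviation: GI50, concentration required for 50% inhibition of growth. TGI marks complete inhibition of growth.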

Columns and labels:
Assay in all cases: NCI tumour cell line growth inhibition, 48 h
786-0 renal = tested on: 786-0 renal
A498 renal = tested on: A498 renal
HCT-15 colon = tested on: HCT-15 colon
HOP-62 NSCLC = tested on: HOP-62 NSCLC
HOP-92 NSCLC = tested on: HOP-92 NSCLC
HS 578T breast = tested on: HS 578T breast
KM12 colon = tested on: KM12 colon
OVCAR-8 ovarian = tested on: OVCAR-8 ovarian
SK-MEL-2 melanoma = tested on: SK-MEL-2 melanoma
U251 CNS = tested on: U251 CNS

Structure (SMILES)	GI50 (786-0 renal)	TGI (786-0 renal)	GI50 (A498 renal)	TGI (A498 renal)	GI50 (HCT-15 colon)	TGI (HCT-15 colon) [µM]	GI50 (HOP-62 NSCLC) [µM]	TGI (HOP-62 NSCLC) [µM]	GI50 (HOP-92 NSCLC) [µM]	TGI (HOP-92 NSCLC) [µM]	GI50 (HS 578T breast) [µM]	TGI (HS 578T breast) [µM]	GI50 (KM12 colon)	TGI (KM12 colon) [µM]	GI50 (OVCAR-8 ovarian) [µM]	TGI (OVCAR-8 ovarian) [µM]	GI50 (SK-MEL-2 melanoma) [µM]	TGI (SK-MEL-2 melanoma) [µM]	GI50 (U251 CNS) [µM]	TGI (U251 CNS) [µM]
COc1cc(/C=C/C(=O)c2c(C)nc3ccccc3c2/C=C/c2ccc(C)cc2)cc(OC)c1OC	1.95 µM	3.81 µM	2 µM	4.87 µM	1.53 µM	3.62	3.1	9.94	1.61	3.9	3.26	> 100	1.87 µM	3.6	3.25	> 100	2.11	5.05	1.73	3.57
Cc1cc2[nH]c(=O)c3c4ccccc4cn3c2cc1C	10.7 µM	22.7 µM	21.5 µM	39.6 µM	6.18 µM	22	2.71	8.18	15.4	30.2	25	59.9	7.06 µM	21.5	7.07	25.9	18.1	34.8	4.03	14.2
Clc1ccc2nnnn2n1	3.73 µM	> 100 µM	15.1 µM	54.9 µM	4.01 µM	> 100	4.51	33.1	4.15	27	21.8	> 100	2.08 µM	4.87	5.22	> 100	2.88	20.7	3.97	22.7
Oc1[nH]c2c(Br)cccc2c1C1=Nc2ccccc2/C1=N/OCCN1CCCC1	0.648 µM and 0.942 µM	2.58 µM and 4.31 µM	0.739 µM and 1.34 µM	2.21 µM and 7.36 µM	0.719 µM and 0.496 µM	–	0.704	2.65	1.04	3.12	1.2	3	0.708 µM and 0.501 µM	> 100	0.792	–	2.21	–	1.09	2.77
Cc1ccc2nc(-c3ccccc3)c(N=O)n2c1	–	> 100 µM	–	> 100 µM	–	> 100	–	> 100	–	> 100	–	> 100	–	> 100	–	> 100	–	> 100	–	> 100
CC(C)COCC(CN(Cc1ccccc1)c1ccccc1)N1CCCC1 (configuration not stated)	3.46 µM	12.8 µM	1.03 µM	10.4 µM	3.15 µM	15.2	2.82	14.4	1.66	6.88	3.6	18.2	3.54 µM	13.7	3.75	14.9	2.73	8	3.24	13.3
COc1ccc(C(=O)/C=C/c2ccc3c(c2)OCO3)c(OCc2ccccc2)c1	–	> 100 µM	–	> 100 µM	–	> 100	–	> 100	–	> 100	–	> 100	–	> 100	–	> 100	–	> 100	–	> 100
CCOC(=O)/C(=C\c1ccc(C#N)cc1)C(C)=O	–	32.9 µM	–	30 µM	–	40	–	> 100	–	50.6	–	88.6	–	43	–	96.9	–	31.3	–	32.7
CC(NCCC(=O)N(CCC(=O)N(CCC(=O)N(CCC(=O)N(CCC(=O)N(CCC(=O)N(CCC(=O)N(CCC(=O)N(CCC(=O)N(CCC(=O)O)[C@H](C)c1ccccc1)[C@H](C)c1ccccc1)[C@H](C)c1ccccc1)[C@H](C)c1ccccc1)[C@H](C)c1ccccc1)[C@H](C)c1ccccc1)[C@H](C)c1ccccc1)[C@H](C)c1ccccc1)[C@H](C)c1ccccc1)c1ccccc1 (some centres not stated)	3.46 µM	> 75 µM	2.37 µM	11.8 µM	3.22 µM	> 27	1.99	6.93	0.753	2.34	2.54	> 57.3	1.76 µM	4.9	3.45	> 47.1	1.9	7.97	2.82	11.1
COc1cc(Cl)cc(-c2nn(-c3cccc(NC(=O)Nc4cc(C(F)(F)F)cc(C(F)(F)F)c4)c3)cc2-c2ccncc2)c1	0.821 µM	2.64 µM	0.629 µM	4.81 µM	0.383 µM	2.74	0.851	2.6	0.228	0.783	1.89	13.6	0.447 µM	2.77	0.39	2.46	0.454	1.91	0.336	1.36
O=S(=O)(c1cccc2c(Cl)cccc12)N1CCCNCC1	11.1 µM	23.1 µM	17.9 µM	32.5 µM	14.5 µM	27.5	11.2	23.3	11	25.8	21.4	45.4	15 µM	28.2	14.1	31.4	17.6	34.3	14.6	27.7
